# Measured values as given in patent US12312330B2, “1-((S)-1-(3-chloro-5-fluoro-2-((4-(1h-pyrazol-1-yl)-2-methylquinolin-8-yloxy)methyl)phenyl)ethyl)-imidazolidine-2,4-dione derivatives and related compounds as bradykinin (BK) B2 receptor antagonist for treating skin diseases” (Pharvaris GmbH, priority 2019, dated 2025).
# Target: T1, human bradykinin B2 receptor (hB2R) (Homo sapiens, UniProt P30411)
# T1 sequence (P30411 1-391): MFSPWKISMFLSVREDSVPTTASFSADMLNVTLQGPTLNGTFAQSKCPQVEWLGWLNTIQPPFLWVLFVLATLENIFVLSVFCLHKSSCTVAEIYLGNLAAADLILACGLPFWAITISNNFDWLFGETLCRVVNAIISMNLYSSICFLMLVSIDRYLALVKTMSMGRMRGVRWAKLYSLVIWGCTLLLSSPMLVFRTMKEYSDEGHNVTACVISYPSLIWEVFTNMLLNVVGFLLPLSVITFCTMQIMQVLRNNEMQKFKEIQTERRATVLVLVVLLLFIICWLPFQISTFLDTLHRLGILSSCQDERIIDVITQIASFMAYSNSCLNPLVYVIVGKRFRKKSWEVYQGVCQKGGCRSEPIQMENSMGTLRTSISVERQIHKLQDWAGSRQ
# Assay: human bradykinin B2 receptor calcium mobilization (hB2R-CaM) assay
# Assay type: cell-based
# Conditions: antagonism of bradykinin (EC80) induced calcium mobilization, B2 Bradykinin Receptor Stable Cell Line HTS041C, 25 min pre-incubation; read-out: IC50-value towards human bradykinin B2 receptor (hB2R)
# Source text: The following cell-based human bradykinin B2 receptor calcium mobilization (hB2R-CaM) assay was used to determine the antagonistic activity of compounds selected from the example compounds Nos. 1 to 107 towards human bradykinin B2 receptor (hB2R). The assay is defined herein as a standard in vitro B2 receptor activity assay, which can be used to determine IC50 values of the compounds according to the present invention, e. g. the compounds shown in Examples 1-13.
# The antagonistic activity of compounds according to the present invention was investigated with the hB2R-CaM assay using the B2 Bradykinin Receptor Stable Cell Line HTS041C (Eurofins, St. Charles MO) and the FLIPR Calcium 6 Assay Kit (Molecular Devices, Wokingham, UK) according to the instructions of the providers. CaM assay measurements were performed with a Flexstation 3 System (Molecular Devices) which allows the precise addition of compounds (B2R antagonists) and bradykinin (B2R agonist) to the cells and adjacent continuous recording of the time-dependent CaM assay signals.
# HTS041C cells were cultured in high glucose DMEM cell culture medium (Lonza) supplemented with 10% heat-inactivated FBS (PAN Biotech), 10 mM HEPES, Penicillin/Streptomycin (200 U/mL, 200 μg/mL), lx non-essential amino acids (Lonza), and 250 μg/mL G418 (Invivogen) in cell incubator at 37° C. in a 5% CO2 atmosphere. One day before the CaM assay experiments cells were seeded in 200 μL DMEM cell culture medium with reduced FBS (5%) and without G418 on clear bottom black 96 well plates (ThermoFisher #165305). Cell starvation was carried out by incubation (37° C., 5% CO2) of 70.000 cells/well for 24 h to 28 h. Immediately prior calcium dye-loading the medium was carefully aspirated and cells were washed with Hank's balanced salt solution (HBSS, Gibco) containing Ca^2+, Mg^2+ and 20 mM HEPES, adjusted to pH 7.4 (HBSS+).
# For calcium dye-loading one FLIPR 6 assay aliquot was dissolved in 20 mL HBSS+. 150 μL of the dye loading solution was added to cell plate and incubated for 120 min at 37° C. and 5% CO2. After dye loading the cell plate was immediately transferred to the pre-warmed (37° C.) Flexstation 3 System for CaM assaying.
# Freshly prepared compound (B2 receptor antagonists) dilution series (8 pt, n=2) and bradykinin (B2 receptor agonist) solution in non-binding plates (Costar) were transferred to the Flexstation System (source plate) shortly before starting the experiment. Bradykinin was added in EC80 concentration determined in n>3 preliminary experiments with 8 pt concentration response curves (n=8)). CaM assay was executed by Flexstation 3 System starting with recording of calcium-sensitive dye fluorescence in bottom-read Flex modus with ex/em=485 nm/525 nm, cut off(em)=515 nm After 20 s, 50 μL of 4-fold concentrated compound dilutions were added to the cells resulting in a final DMSO (Sigma) concentration of 0.1% in the cell plate. CaM signals were monitored for 80 s after additions for detection of potential agonistic activities. Prior to bradykinin stimulus compound- and vehicle-treated cells were incubated for 25 min at 37° C. within the Flexstation System. Then 50 μL of a 5-fold concentrated bradykinin solution (HBSS+, 0.1% DMSO) was added to trigger CaM signals (Read out: Max-Min values) which were measured for 80 s post bradykinin stimulus.
# IC50 determinations were performed by 4 parameter logistic model curve fitting of the 8 pt (n=2) compound concentration response curves using XLFIT (IDBS) software.
row,SMILES,IC50
1,Cc1cc(-n2cc(F)cn2)c2cccc(OCc3c(Cl)cc(F)cc3[C@H](C)N3CC[C@@H](OC(F)F)C3=O)c2n1 [compound 89],11 to 100 nM
2,Cc1cc(-n2cc(F)cn2)c2cccc(OCc3c(Cl)cc(F)cc3[C@H](C)N3CC(=O)NC3=O)c2n1 [compound 19],11 to 100 nM
3,Cc1cc(-n2cc(F)cn2)c2cccc(OCc3c(Cl)cc(F)cc3[C@H](C)N3CCN[C@H](C)C3=O)c2n1 [compound 77],11 to 100 nM
4,"CCN1C(=O)C(C)N([C@@H](C)c2cc(F)cc(Cl)c2COc2cccc3c(-n4cc(F)cn4)cc(C)nc23)C1=O (single isomer, unassigned) [Compound No. 2]",11 to 100 nM
5,Cc1cc(-c2ncnn2C)c2cccc(OCc3c(Cl)cc(F)cc3[C@H](C)N3CC(=O)N[C@H](C)C3=O)c2n1 [compound 75],11 to 100 nM
6,"Cc1cc(-n2cc(F)cn2)c2cccc(OCc3c(Cl)cc(F)cc3[C@H](C)N3CC(=O)N(CC(N)=O)C3=O)c2n1 [Compound No. 1, (S)-2-(3-(1-(3-chloro-5-fluoro-2-((4-(4-fluoro-1H-pyrazol-1-yl)-2-methylquinolin-8-yloxy)methyl)phenyl)ethyl)-2,5-dioxoimidazolidin-1-yl)acetamide]",11 to 100 nM
7,"Cc1cc(-n2cc(F)cn2)c2cccc(OCc3c(Cl)cc(F)cc3[C@H](C)N3C(=O)N(C4CC4)C(=O)C3C)c2n1 (single isomer, unassigned) [compound 31]",101 to 500 nM
8,"CCN1C(=O)C(C)N([C@@H](C)c2cc(F)cc(Cl)c2COc2cccc3c(-c4ncnn4C)cc(C)nc23)C1=O (single isomer, unassigned) [compound 54]",11 to 100 nM
9,Cc1cc(-n2cc(F)cn2)c2cccc(OCc3c(Cl)cc(F)cc3[C@H](C)N3CCN(C(=O)OC(C)(C)C)[C@@H](C)C3=O)c2n1 [compound 80],101 to 500 nM
10,Cc1cc(-n2cc(F)cn2)c2cccc(OCc3c(Cl)cc(F)cc3[C@H](C)N3C[C@@H](C)OCC3=O)c2n1 [compound 39],11 to 100 nM

# Further lines, results first:
row,IC50,SMILES
1,11 to 100 nM,Cc1cc(-n2cc(F)cn2)c2cccc(OCc3c(Cl)cc(F)cc3[C@H](C)N3C(=O)[C@H](C)NC(=O)[C@@H]3C)c2n1 [compound 90]
2,11 to 100 nM,"Cc1cc(-n2cc(F)cn2)c2cccc(OCc3c(Cl)cc(F)cc3[C@H](C)N3CCNC3=O)c2n1 [Compound No. 3, (S)-1-(1-(3-chloro-5-fluoro-2-((4-(4-fluoro-1H-pyrazol-1-yl)-2-methylquinolin-8-yloxy)methyl)phenyl)ethyl)imidazolidin-2-one]"
3,≤ 10 nM,Cc1cc(-c2ncnn2C)c2cccc(OCc3c(Cl)cc(F)cc3[C@H](C)N3CC[C@@H](OC(F)F)C3=O)c2n1 [compound 88]
4,≤ 10 nM,"Cc1cc(-n2cc(F)cn2)c2cccc(OCc3c(Cl)cc(F)cc3[C@H](C)N3CC(=O)N(C)[C@@H](C)C3=O)c2n1 [Compound No. 12, (S)-1-((S)-1-(3-chloro-5-fluoro-2-((4-(4-fluoro-1H-pyrazol-1-yl)-2-methylquinolin-8-yloxy)methyl)phenyl)ethyl)-3,4-dimethylpiperazine-2,5-dione]"
5,11 to 100 nM,Cc1cc(-n2cc(F)cn2)c2cccc(OCc3c(Cl)cc(F)cc3[C@H](C)N3CCNC(C)(C)C3=O)c2n1 [compound 100]
6,≤ 10 nM,Cc1cc(-n2cc(F)cn2)c2cccc(OCc3c(Cl)cc(F)cc3[C@H](C)N3CCN[C@@H](C)C3=O)c2n1 [compound 94]
7,≤ 10 nM,Cc1cc(-n2cc(F)cn2)c2cccc(OCc3c(Cl)cc(F)cc3[C@H](C)N3C[C@@H](C)NC(=O)C3=O)c2n1 [compound 97]
8,≤ 10 nM,Cc1cc(-c2ncnn2C)c2cccc(OCc3c(Cl)cc(F)cc3[C@H](C)N3CC[C@H](Cl)C3=O)c2n1 [compound 44]
9,≤ 10 nM,Cc1cc(-n2cc(F)cn2)c2cccc(OCc3c(Cl)cc(F)cc3[C@H](C)N3CC[C@H](Cl)C3=O)c2n1 [compound 37]
10,≤ 10 nM,Cc1cc(-c2ncnn2C)c2cccc(OCc3c(Cl)cc(F)cc3[C@H](C)N3CCCC3=O)c2n1 [compound 27]
11,≤ 10 nM,Cc1cc(-c2ncnn2C)c2cccc(OCc3c(Cl)cc(F)cc3[C@H](C)N3C[C@@H](O)CC3=O)c2n1 [compound 73]
12,≤ 10 nM,Cc1cc(-c2ncnn2C)c2cccc(OCc3c(Cl)cc(F)cc3[C@H](C)N3CC(C)CC3=O)c2n1 (stereo partly shown) [compound 63]
